After the bases stand the sugars from the 5' end (letter, count) and the backbone: PS all phosphorothioate, else s phosphorothioate and o phosphodiester by linkage. Methylation of C is not given here. e = 2'-O-(2-methoxyethyl) (MOE); k = constrained ethyl (cEt); d = 2'-deoxy (DNA); m = 2'-O-methyl
Biological target: HSD17B13
Conditions: ASO, HepaRG

## AAAAATTGGCCTCCTG (sugars k3 d10 k3, PS)
1 µM
  target mRNA inhibition: 41%

## AAAACATTGCTCTTCG (sugars k3 d10 k3, PS)
1 µM
  target mRNA inhibition: 59%

## AAAACCGTCAAATAGG (sugars k3 d10 k3, PS)
1 µM
  target mRNA inhibition: 28%

## AAAACTTCACCAACGA (sugars k3 d10 k3, PS)
1 µM
  target mRNA inhibition: 29%

## AAAATAGAGTCGGTCA (sugars kkdddddddddkekek, PS)
1 µM
  target mRNA inhibition: 53%

## AAAATCGCTGCTTAGT (sugars k3 d10 k3, PS)
1 µM
  target mRNA inhibition: 35%

## AAAATTATGCCTTGTG (sugars k3 d10 k3, PS)
1 µM
  target mRNA inhibition: 50%

## AAACAAGAGGATAGTC (sugars kkkdddddddkdkkke, PS)
1 µM
  target mRNA inhibition: 45%

## AAACATCTCTGGGACC (sugars k3 d10 k3, PS)
0.02 µM
  target mRNA inhibition: 0%
0.078 µM
  target mRNA inhibition: 0%
0.313 µM
  target mRNA inhibition: 33%
1.25 µM
  target mRNA inhibition: 56%
5 µM
  target mRNA inhibition: 78%

## AAACCTTCATGCTAGT (sugars k3 d10 k3, PS)
1 µM
  target mRNA inhibition: 27%

## AAACCTTGAATGAGTG (sugars k3 d10 k3, PS)
1 µM
  target mRNA inhibition: 37%

## AAAGCCCTATTCTTCG (sugars k3 d10 k3, PS)
1 µM
  target mRNA inhibition: 65%

## AAAGTTAGTTGGGCGA (sugars k3 d10 k3, PS)
1 µM
  target mRNA inhibition: 26%

## AAATCTTGTGTAACTG (sugars k3 d10 k3, PS)
1 µM
  target mRNA inhibition: 41%

## AAATTATTGCCTGAAC (sugars k3 d10 k3, PS)
1 µM
  target mRNA inhibition: 32%

## AAATTCATAAGTAGTC (sugars k3 d10 k3, PS)
1 µM
  target mRNA inhibition: 39%

## AAATTGGCCTCCTGGG (sugars k3 d10 k3, PS)
1 µM
  target mRNA inhibition: 44%

## AAATTGGTTTCGAATC (sugars k3 d10 k3, PS)
1 µM
  target mRNA inhibition: 32%

## AAATTTGCTGGAACTG (sugars k3 d10 k3, PS)
1 µM
  target mRNA inhibition: 15%

## AAATTTGTGAACCTGC (sugars k3 d10 k3, PS)
1 µM
  target mRNA inhibition: 26%

## AACAATCAGGAGTTGC (sugars k3 d10 k3, PS)
1 µM
  target mRNA inhibition: 31%

## AACACTAATCTCAGTA (sugars k3 d10 k3, PS)
1 µM
  target mRNA inhibition: 15%

## AACAGTCTTAAACCTT (sugars k3 d1 m1 d8 k3, PS)
1 µM
  target mRNA inhibition: 75%

## AACATCTCTGGGACCA (sugars k3 d9 k3 e1, PS)
1 µM
  target mRNA inhibition: 61%

## AACCTATGTGTGCACC (sugars k3 d10 k3, PS)
1 µM
  target mRNA inhibition: 73%

## AACCTTTGTTGCCTGG (sugars k3 d10 k3, PS)
1 µM
  target mRNA inhibition: 36%

## AACGACTCCAAGTAGG (sugars k3 d10 k3, PS)
1 µM
  target mRNA inhibition: 27%

## AACTACAAGAGGTTAT (sugars k3 d10 k3, PS)
1 µM
  target mRNA inhibition: 57%

## AACTACATGACCTGGG (sugars k3 d10 k3, PS)
1 µM
  target mRNA inhibition: 27%

## AACTAGTGGTAATGGT (sugars k3 d10 k3, PS)
1 µM
  target mRNA inhibition: 32%

## AACTCTAAATACCCTT (sugars k3 d10 k3, PS)
1 µM
  target mRNA inhibition: 28%

## AACTCTATTGATTGGC (sugars k3 d10 k3, PS)
1 µM
  target mRNA inhibition: 72%

## AACTGAAGGTCTGAGC (sugars k3 d10 k3, PS)
1 µM
  target mRNA inhibition: 55%

## AACTTCACCAACGACT (sugars k3 d10 k3, PS)
1 µM
  target mRNA inhibition: 0%

## AACTTCATAGTGGACT (sugars kkdddddddddkekek, PS)
1 µM
  target mRNA inhibition: 68%

## AAGAAATTTGTGAACC (sugars k3 d10 k3, PS)
1 µM
  target mRNA inhibition: 21%

## AAGACATTCTAGCCTG (sugars k3 d9 k3 e1, PS)
1 µM
  target mRNA inhibition: 40%

## AAGATACCCAGGTTGC (sugars k3 d9 k3 e1, PS)
1 µM
  target mRNA inhibition: 69%

## AAGATACCCAGGTTGC (sugars kkdddddddddkekek, PS)
1 µM
  target mRNA inhibition: 59%

## AAGATTAGTCTTGATG (sugars k3 d10 k3, PS)
1 µM
  target mRNA inhibition: 25%

## AAGCTTTGCAGCATTG (sugars k3 d10 k3, PS)
1 µM
  target mRNA inhibition: 59%

## AAGGAGTAGTGGAGCC (sugars k3 d10 k3, PS)
1 µM
  target mRNA inhibition: 38%

## AAGGTTAGATTTCATC (sugars k3 d10 k3, PS)
0.02 µM
  target mRNA inhibition: 1%
0.078 µM
  target mRNA inhibition: 14%
0.313 µM
  target mRNA inhibition: 60%
1 µM
  target mRNA inhibition: 80%
1.25 µM
  target mRNA inhibition: 64%
5 µM
  target mRNA inhibition: 78%

## AAGTAGATGGTAAGTC (sugars k3 d10 k3, PS)
0.02 µM
  target mRNA inhibition: 7%
0.078 µM
  target mRNA inhibition: 42%
0.313 µM
  target mRNA inhibition: 67%
1 µM
  target mRNA inhibition: 85%
1.25 µM
  target mRNA inhibition: 89%
5 µM
  target mRNA inhibition: 95%

## AAGTTACCAGAGCATT (sugars k3 d10 k3, PS)
0.02 µM
  target mRNA inhibition: 0%
0.078 µM
  target mRNA inhibition: 5%
0.313 µM
  target mRNA inhibition: 45%
1 µM
  target mRNA inhibition: 70%
1.25 µM
  target mRNA inhibition: 80%
5 µM
  target mRNA inhibition: 90%

## AAGTTAGCCCCCAGGA (sugars k3 d9 k3 e1, PS)
1 µM
  target mRNA inhibition: 23%

## AAGTTTGTTAGAGTGC (sugars k3 d10 k3, PS)
1 µM
  target mRNA inhibition: 74%

## AAGTTTTGGGACCAAT (sugars k3 d10 k3, PS)
1 µM
  target mRNA inhibition: 11%

## AATAATAGCTCTATTG (sugars k3 d9 k3 e1, PS)
1 µM
  target mRNA inhibition: 3%

## AATACAGGATAGAGCA (sugars k3 d10 k3, PS)
1 µM
  target mRNA inhibition: 0%

## AATACGACTTCCTTCT (sugars k3 d10 k3, PS)
1 µM
  target mRNA inhibition: 26%

## AATACTCCCCAATTGC (sugars k3 d10 k3, PS)
1 µM
  target mRNA inhibition: 0%

## AATAGAGTCGGTCACC (sugars k3 d9 k3 e1, PS)
1 µM
  target mRNA inhibition: 58%

## AATAGAGTTGCACCGT (sugars k3 d10 k3, PS)
1 µM
  target mRNA inhibition: 48%

## AATAGCCAGTACAGTT (sugars k3 d1 m1 d8 k3, PS)
1 µM
  target mRNA inhibition: 66%

## AATAGTCTTCAGCAAA (sugars k3 d10 k3, PS)
1 µM
  target mRNA inhibition: 48%

## AATATGTCCAGGTTGA (sugars k3 d10 k3, PS)
1 µM
  target mRNA inhibition: 64%

## AATATTGAGGCACTGG (sugars k3 d9 k3 e1, PS)
1 µM
  target mRNA inhibition: 36%

## AATCCCAACCAAACTT (sugars kkdddddddddkekek, PS)
1 µM
  target mRNA inhibition: 17%

## AATGAATCATGATTGA (sugars k3 d10 k3, PS)
1 µM
  target mRNA inhibition: 33%

## AATGAGGCGGCACTCA (sugars k3 d10 k3, PS)
1 µM
  target mRNA inhibition: 20%

## AATGCTACTTGAACAG (sugars k3 d1 m1 d8 k3, PS)
1 µM
  target mRNA inhibition: 34%

## AATGCTACTTGAACAG (sugars k3 d10 k3, PS)
1 µM
  target mRNA inhibition: 54%

## AATGTAAGAAGCCACG (sugars k3 d10 k3, PS)
1 µM
  target mRNA inhibition: 26%

## AATTATTTCTTGCGAG (sugars k3 d10 k3, PS)
1 µM
  target mRNA inhibition: 16%

## AATTCACCTTGACTAA (sugars k3 d1 m1 d8 k3, PS)
1 µM
  target mRNA inhibition: 0%

## AATTCACCTTGACTAA (sugars kkdddddddddkekek, PS)
1 µM
  target mRNA inhibition: 9%

## AATTCTATAGCTAAGT (sugars k3 d10 k3, PS)
1 µM
  target mRNA inhibition: 9%

## AATTGTCTAAACATCT (sugars k3 d10 k3, PS)
1 µM
  target mRNA inhibition: 62%

## AATTTATTTGCTGGTC (sugars k3 d10 k3, PS)
1 µM
  target mRNA inhibition: 27%

## AATTTCATACAGTTCG (sugars k3 d10 k3, PS)
1 µM
  target mRNA inhibition: 66%

## ACAACCCTTAACAAAC (sugars k3 d10 k3, PS)
1 µM
  target mRNA inhibition: 26%

## ACAAGAGGATAGTCCA (sugars k3 d10 k3, PS)
1 µM
  target mRNA inhibition: 64%

## ACAATATGGGATGAGG (sugars k3 d10 k3, PS)
0.02 µM
  target mRNA inhibition: 29%
0.078 µM
  target mRNA inhibition: 7%
0.313 µM
  target mRNA inhibition: 43%
1 µM
  target mRNA inhibition: 71%
1.25 µM
  target mRNA inhibition: 65%
5 µM
  target mRNA inhibition: 85%

## ACAATCAGGAGTTGCA (sugars k3 d10 k3, PS)
1 µM
  target mRNA inhibition: 62%

## ACACTAATATTGAGGC (sugars k3 d9 k3 e1, PS)
1 µM
  target mRNA inhibition: 68%

## ACACTAATATTGAGGC (sugars k3 d10 k3, PS)
0.02 µM
  target mRNA inhibition: 28%
0.078 µM
  target mRNA inhibition: 32%
0.313 µM
  target mRNA inhibition: 37%
1 µM
  target mRNA inhibition: 68%
1.25 µM
  target mRNA inhibition: 58%
5 µM
  target mRNA inhibition: 85%

## ACACTAATCTCAGTAC (sugars k3 d10 k3, PS)
1 µM
  target mRNA inhibition: 6%

## ACAGAACCAATATGCT (sugars k3 d10 k3, PS)
1 µM
  target mRNA inhibition: 40%

## ACAGACTAAGGGACCA (sugars k3 d10 k3, PS)
1 µM
  target mRNA inhibition: 68%

## ACAGAGAATTGTTTAG (sugars k3 d10 k3, PS)
1 µM
  target mRNA inhibition: 39%

## ACAGAGTTATTGTAGG (sugars k3 d10 k3, PS)
1 µM
  target mRNA inhibition: 58%

## ACAGGTAATTAATCTT (sugars k3 d10 k3, PS)
1 µM
  target mRNA inhibition: 39%

## ACAGTTCCTTTTCCTG (sugars k3 d10 k3, PS)
1 µM
  target mRNA inhibition: 58%

## ACAGTTGAGTAGTGTA (sugars k3 d10 k3, PS)
1 µM
  target mRNA inhibition: 72%

## ACAGTTTAGATTGCAT (sugars k3 d10 k3, PS)
0.02 µM
  target mRNA inhibition: 12%
0.078 µM
  target mRNA inhibition: 0%
0.313 µM
  target mRNA inhibition: 73%
1 µM
  target mRNA inhibition: 84%
1.25 µM
  target mRNA inhibition: 73%
5 µM
  target mRNA inhibition: 97%

## ACATAACTTCATAGTG (sugars k3 d10 k3, PS)
1 µM
  target mRNA inhibition: 27%

## ACATACGCATGCGCAG (sugars k3 d10 k3, PS)
1 µM
  target mRNA inhibition: 20%

## ACATAGACATGTGTTC (sugars k3 d10 k3, PS)
1 µM
  target mRNA inhibition: 35%

## ACATATGTGAAGAGCT (sugars k3 d10 k3, PS)
1 µM
  target mRNA inhibition: 66%

## ACATCCAAGTAATTAC (sugars k3 d10 k3, PS)
1 µM
  target mRNA inhibition: 56%

## ACATTAGCAAGCTAAG (sugars k3 d10 k3, PS)
1 µM
  target mRNA inhibition: 52%

## ACATTGCAGTTATTAG (sugars k3 d9 k3 e1, PS)
1 µM
  target mRNA inhibition: 52%

## ACATTGCAGTTATTAG (sugars kkdddddddddkekek, PS)
1 µM
  target mRNA inhibition: 46%

## ACCAAACTTCCAGCAG (sugars kkdddddddddkekek, PS)
1 µM
  target mRNA inhibition: 32%

## ACCAACGACTCCAAGT (sugars k3 d10 k3, PS)
1 µM
  target mRNA inhibition: 16%

## ACCAATATGCTCTGTC (sugars k3 d10 k3, PS)
0.02 µM
  target mRNA inhibition: 19%
0.078 µM
  target mRNA inhibition: 5%
0.313 µM
  target mRNA inhibition: 41%
1 µM
  target mRNA inhibition: 67%
1.25 µM
  target mRNA inhibition: 78%
5 µM
  target mRNA inhibition: 97%

— the OligoGym collection
